The source of these data is US20200048611A1, “ENGINEERED PLATFORM FOR CONNECTED MICROPATTERNED CARDIAC TISSUES” (Wisconsin Alumni Research Foundation, priority 2018, published 2020).

The structures appear in SMILES notation.

This assay concerns patterned hPSC-CMs. The experiment in a line: beta-adrenergic stimulation of micropatterned hPSC-CMs with isoproterenol (contraction, digital image correlation). The assay is classed as cell-based, human. Conditions: patterned CMs on 10 kPa PDMS, 1 μM isoproterenol. From the text:
In this Example, cardiomyocytes were differentiated from the 19-9-11 iPSC line and purified using lactate media. 10 kPa PDMS substrates mimicking the elasticity of the healthy myocardium were made by blending together commercially available Sylgard 184 and 527. […] Statistical analyses were done using one-way ANOVA with post hoc Tukey test.

On to `CC(C)NCC(O)c1ccc(O)c(O)c1` (centres unmarked) [isoproterenol], for which the rate of contraction entry is listed as “increase in the rate of contraction”. Where the note is “versus baseline normal contraction”, the “amplitude of contraction (x-displacement)” value is recorded as “amplitude of contraction also increased from baseline”.
